# Source: publication doi:10.1101/2020.05.25.114512v1 (bioRxiv, 2020)
# Key:
# Cytotoxic activity [1] = assay type: cell-based; conditions: human, KB-3-1 cells (cervix carcinoma)
# [2] = tested on: pyocyanin produced by Pseudomonas aeruginosa strain PA14; assay: Pyocyanin assay; assay type: cell-based; conditions: administered to Pseudomonas aeruginosa
# pancreatic elastase = conditions: previously listed in the literature; cited from earlier work
# E. coli TolC mutants = assay: Bacterial cell entry test, LC-MS analysis; assay type: cell-based, Escherichia coli; conditions: concluded from fluorescence microscopy and LC-MS analysis
# Cytotoxic activity [3] = assay type: cell-based; conditions: human, HCT-116 cells (colon carcinoma)
# neurotensin = conditions: ref [25]; cited from earlier work
Compound,IC50 at 5 days (Cytotoxic activity [1]) [µg/mL],inhibition of pyocyanin production (in words) [2],inhibition of pancreatic elastase (in words) (pancreatic elastase),"cell entry capabilities for E. coli (authors' conclusion, in words) (E. coli TolC mutants)",IC50 at 5 days (Cytotoxic activity [3]) [µg/mL],"IC50, neurotensin inhibitor (neurotensin) [µg/mL]"
CC[C@H](C)[C@@H]1NC(=O)[C@@H](N)Cc2ccc(OC)c(c2)-c2cc3cc(c2O)Oc2ccc(cc2)C[C@@H](C(=O)O)NC(=O)[C@H](C3)NC1=O [cittilin A],74.8,no inhibition of pyocyanin production,moderate inhibitor,poor cell entry capabilities,110,–
YIYY (bicyclic or more) [cittilin B],–,–,–,–,–,30
